Publication PMC4287843 (ACS Chemical Biology, 2014)
Strand notation (5' to 3'): a small letter for the sugar, then the base; units joined by * are phosphorothioate-linked, units joined directly phosphodiester-linked; [ ] holds rarer units or linkages, { } end groups; capitals alone tell only the bases. m = 2'-O-methyl

Key:
[1] = test system: SMN2 mini-gene splicing in COS7 cells expressing r(CGG)60X; experiment: SMN2 alternative pre-mRNA splicing in FXTAS cell culture model; format: cell-based
[2] = target: r(CGG) repeats; settings: cited from earlier work
[3] = test system: r(CGG)12-DGCR8Δ complex; settings: read-out: IC50 for disrupting binding of DGCR8Δ; in vitro; cited from earlier work
[4] = target: T1, DGCR8Δ (UniProt Q8WYQ5 493-720); experiment: EMSA
T1 sequence: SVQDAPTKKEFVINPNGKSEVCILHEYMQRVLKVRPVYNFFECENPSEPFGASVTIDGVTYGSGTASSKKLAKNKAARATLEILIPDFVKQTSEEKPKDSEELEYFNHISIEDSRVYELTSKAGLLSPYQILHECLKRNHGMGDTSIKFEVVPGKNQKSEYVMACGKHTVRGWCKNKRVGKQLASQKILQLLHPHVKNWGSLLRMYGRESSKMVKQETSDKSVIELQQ

[5] = target: T1, DGCR8Δ; experiment: TR-FRET

For “2’OMe-PS-(CUGCGCGUAUUAGUCUACAAGUAAGGGCU-ACGACCU) (mC*mU*mG*mC*mG*mC*mG*mU*mA*mU*mU*mA*mG*mU*mC*mU*mA*mC*mA*mA*mG*mU*mA*mA*mG*mG*mG*mC*mU*mA*mC*mG*mA*mC*mC*mU) [scrambled oligonucleotide]”, the “effect on SMN2 splicing defect” value ([1]; 100 and 500 nM oligo (not 4 or 20 nM)) was “exacerbates splicing defects”.

For `Cc1c2cc[n+](CCN3CCCCC3)cc2c(C)c2c1[nH]c1ccc(O)cc12` [1a, 9-hydroxy-5,11-dimethyl-2-(2-(piperidin-1-yl)ethyl)-6H-pyrido[4,3-b]carbazol-2-ium], the Kd [2] is listed as 0.076 ± 0.004 µM, the IC50 [3] is listed as 13 ± 0.4 µM and the “fold less potent than 2H-5 for improving pre-mRNA splicing defects” value [1] is listed as ~10 fold.

CCGCCGCCGCCGCCGCCGCCGCCG (ssDNA) [d(CCG)8]: no binding [4].

CGGCGGCGGCGGCGGCGGCGGCGGCGGCGGCGGCGG (structured_RNA) [r(CGG)12]: binds [5].

CCGCCGCCGCCGCCGCCGCCGCCGCCGCCGCCGCCG (ssDNA) [d(CCG)12]: no binding [4].
